Assays:
Recombinant ROCK2 = Recombinant ROCK2 (Homo sapiens (Human), UniProt O75116); test: Lance Ultra Kinase Assay, ROCK2 inhibition; format: biochemical; settings: ATP at Km, 30 min pre-incubation, 1 h reaction
Protocol: The inhibition potency of compounds against these enzymes was assessed using Lance Ultra Kinase Assay. In brief, recombinant kinases were pre-incubated in the presence or absence of compound at room temperature for 30 minutes. The reaction was initiated by the addition of the ATP (Km) and substrate peptide which could be phosphorylated by kinases in the reaction. After 1 h incubation, the reaction was stopped by the addition of the detection reagent mix containing EDTA. The fluorescence was measured at 615 nm and 665 nm, respectively with excitation wavelength at 320 nm. The calculated signal ratio of 665 nm/615 nm is proportional to the kinase activity.

Recombinant ROCK1 = Recombinant ROCK1 (Homo sapiens (Human), UniProt Q13464); test: Lance Ultra Kinase Assay, ROCK1 inhibition; format: biochemical; settings: ATP at Km, 30 min pre-incubation, 1 h reaction
Sequence of Recombinant ROCK1 (Q13464 whole entry): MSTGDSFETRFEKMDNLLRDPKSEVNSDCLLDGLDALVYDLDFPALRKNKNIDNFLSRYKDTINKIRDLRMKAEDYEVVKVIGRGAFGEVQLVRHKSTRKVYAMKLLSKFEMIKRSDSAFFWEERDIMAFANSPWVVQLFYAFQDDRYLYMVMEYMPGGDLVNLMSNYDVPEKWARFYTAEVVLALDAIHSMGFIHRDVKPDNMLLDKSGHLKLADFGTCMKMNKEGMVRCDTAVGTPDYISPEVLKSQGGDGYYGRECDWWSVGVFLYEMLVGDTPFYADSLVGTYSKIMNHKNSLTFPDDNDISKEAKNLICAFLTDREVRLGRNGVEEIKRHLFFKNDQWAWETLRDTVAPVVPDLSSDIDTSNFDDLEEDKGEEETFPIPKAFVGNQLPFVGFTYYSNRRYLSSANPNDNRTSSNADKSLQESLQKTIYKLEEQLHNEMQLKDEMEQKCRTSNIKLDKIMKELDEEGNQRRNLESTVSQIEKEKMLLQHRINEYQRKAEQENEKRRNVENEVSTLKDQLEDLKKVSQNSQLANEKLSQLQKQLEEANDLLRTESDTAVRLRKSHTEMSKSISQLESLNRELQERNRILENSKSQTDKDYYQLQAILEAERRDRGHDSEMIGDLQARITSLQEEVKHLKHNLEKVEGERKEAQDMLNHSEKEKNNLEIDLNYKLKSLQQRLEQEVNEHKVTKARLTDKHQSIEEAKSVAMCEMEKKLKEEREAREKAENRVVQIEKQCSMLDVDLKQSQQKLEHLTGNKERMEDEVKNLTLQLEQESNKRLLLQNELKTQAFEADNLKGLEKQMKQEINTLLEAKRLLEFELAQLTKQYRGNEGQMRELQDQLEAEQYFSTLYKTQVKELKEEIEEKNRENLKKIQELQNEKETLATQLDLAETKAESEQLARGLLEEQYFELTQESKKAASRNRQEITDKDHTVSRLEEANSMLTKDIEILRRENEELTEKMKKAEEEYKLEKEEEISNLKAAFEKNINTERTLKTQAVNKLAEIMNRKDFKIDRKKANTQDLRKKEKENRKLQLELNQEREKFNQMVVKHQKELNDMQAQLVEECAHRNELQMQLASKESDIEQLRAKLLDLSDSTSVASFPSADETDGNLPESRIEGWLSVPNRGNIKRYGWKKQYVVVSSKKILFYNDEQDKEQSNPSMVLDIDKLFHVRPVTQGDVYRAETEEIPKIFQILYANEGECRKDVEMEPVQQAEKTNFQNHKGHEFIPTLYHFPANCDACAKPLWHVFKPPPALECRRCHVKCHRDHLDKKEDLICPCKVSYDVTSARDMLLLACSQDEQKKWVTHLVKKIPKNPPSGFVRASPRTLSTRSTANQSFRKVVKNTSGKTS

Sequence of Recombinant ROCK2 (O75116 whole entry): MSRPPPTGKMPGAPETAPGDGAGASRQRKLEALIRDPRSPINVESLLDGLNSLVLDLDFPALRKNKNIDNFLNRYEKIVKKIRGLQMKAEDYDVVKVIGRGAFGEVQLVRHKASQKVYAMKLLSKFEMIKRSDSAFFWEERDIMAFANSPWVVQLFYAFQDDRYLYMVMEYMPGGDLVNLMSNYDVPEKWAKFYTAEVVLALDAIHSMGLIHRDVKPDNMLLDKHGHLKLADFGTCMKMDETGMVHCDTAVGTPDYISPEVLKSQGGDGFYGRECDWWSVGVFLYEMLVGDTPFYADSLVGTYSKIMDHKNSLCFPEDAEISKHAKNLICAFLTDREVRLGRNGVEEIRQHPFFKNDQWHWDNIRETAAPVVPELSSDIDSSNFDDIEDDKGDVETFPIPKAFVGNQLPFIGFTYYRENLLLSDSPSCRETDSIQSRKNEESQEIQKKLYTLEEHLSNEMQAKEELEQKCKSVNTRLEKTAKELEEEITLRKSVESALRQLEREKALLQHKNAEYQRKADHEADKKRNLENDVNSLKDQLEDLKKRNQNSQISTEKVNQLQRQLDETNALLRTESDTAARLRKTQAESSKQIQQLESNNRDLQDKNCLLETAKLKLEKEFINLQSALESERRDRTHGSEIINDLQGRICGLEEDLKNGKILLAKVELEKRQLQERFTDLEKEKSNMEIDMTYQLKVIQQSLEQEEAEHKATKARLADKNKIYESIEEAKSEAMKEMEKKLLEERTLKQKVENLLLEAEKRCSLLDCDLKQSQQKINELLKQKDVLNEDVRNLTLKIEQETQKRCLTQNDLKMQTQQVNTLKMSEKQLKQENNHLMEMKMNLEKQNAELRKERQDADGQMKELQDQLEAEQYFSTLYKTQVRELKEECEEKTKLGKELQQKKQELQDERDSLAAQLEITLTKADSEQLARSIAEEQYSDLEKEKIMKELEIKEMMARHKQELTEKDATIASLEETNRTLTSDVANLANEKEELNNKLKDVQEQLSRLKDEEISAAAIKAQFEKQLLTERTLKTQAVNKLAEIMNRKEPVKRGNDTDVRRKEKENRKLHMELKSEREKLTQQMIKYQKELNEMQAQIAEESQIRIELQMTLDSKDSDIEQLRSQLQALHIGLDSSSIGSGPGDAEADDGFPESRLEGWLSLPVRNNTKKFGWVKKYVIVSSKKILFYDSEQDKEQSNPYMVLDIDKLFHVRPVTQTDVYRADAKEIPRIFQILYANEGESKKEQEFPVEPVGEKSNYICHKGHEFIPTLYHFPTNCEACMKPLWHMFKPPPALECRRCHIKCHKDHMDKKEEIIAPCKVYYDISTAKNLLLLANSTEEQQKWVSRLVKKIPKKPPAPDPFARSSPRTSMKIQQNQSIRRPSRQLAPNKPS

IC50 (Recombinant ROCK2) | IC50 (Recombinant ROCK1) | SMILES
0.53 nM | 1.4 nM | Cn1ccc(C(CN)C(=O)Nc2cccc3c(-c4cn[nH]c4)c[nH]c23)cc1=O (racemic) [Example 103, 3-amino-2-(1-methyl-2-oxopyridin-4-yl)-N-[3-(1H-pyrazol-4-yl)-1H-indol-7-yl]propanamide]
32 nM | 60 nM | COc1ccc(C(CN)NC(=O)c2cccc3c(-c4cn[nH]c4)c[nH]c23)cc1 (single isomer, unassigned) [Example 144, N-(2-amino-1-(4-methoxyphenyl)ethyl)-3-(1H-pyrazol-4-yl)-1H-indole-7-carboxamide]
247 nM | 442 nM | Cc1ccc(C(=O)OCc2ccc(C(CN)C(=O)Nc3cccc4c(-c5cn[nH]c5)c[nH]c34)cc2)c(C)c1 (single isomer, unassigned) [Example 6]
71 nM | 204 nM | NCC(C(=O)Nc1cccc2c(-c3cn[nH]c3)c[nH]c12)c1cccc(CO)c1 (racemic) [Example 75, 3-amino-2-[3-(hydroxymethyl)phenyl]-N-[3-(1H-pyrazol-4-yl)-1H-indol-7-yl]propanamide]
28 nM | 122 nM | CP(C)(=O)c1ccc(C(CN)C(=O)Nc2cccc3c(-c4cn[nH]c4)c[nH]c23)cc1 (racemic) [Example 97, 3-amino-2-[4-(dimethylphosphoryl)phenyl]-N-[3-(1H-pyrazol-4-yl)-1H-Indol-7-yl]propanamide]
70 nM | 111 nM | CN1CCC(C(C(=O)Nc2cccc3c(-c4cn[nH]c4)c[nH]c23)c2ccccc2)CC1 (single isomer, unassigned) [Example 44, N-(3-(1H-pyrazol-4-yl)-1H-indol-7-yl)-2-(1-methylpiperidin-4-yl)-2-phenylacetamide]
1.7 nM | 1.7 nM | CN1CCN(C(C(=O)Nc2cccc3c(-c4cn[nH]c4)c[nH]c23)C2CCCCC2)CC1 (racemic) [Example 129, 2-cyclohexyl-2-(4-methylpiperazin-1-yl)-N-[3-(1H-pyrazol-4-yl)-1H-indol-7-yl]acetamide]
66 nM | 87 nM | NCC(C(=O)Nc1cccc2c(-c3cn[nH]c3)c[nH]c12)C1CCOCC1 (single isomer, unassigned) [Example 27, N-(3-(1H-pyrazol-4-yl)-1H-indol-7-yl)-3-amino-2-(tetrahydro-2H-pyran-4-yl)propanamide]
1.1 nM | 3.2 nM | COc1cccc([C@H](C(=O)Nc2cccc3c(-c4cn[nH]c4)c[nH]c23)C2CCN(C)CC2)c1 (single isomer, unassigned) [Example 30, N-(3-(1H-pyrazol-4-yl)-1H-indol-7-yl)-2-(3-methoxyphenyl)-2-(1-methylpiperidin-4-yl) acetamide]
310 nM | 604 nM | CN1CCN(CC(C(=O)Nc2cccc3c(-c4cn[nH]c4)c[nH]c23)c2cccnc2)CC1 (single isomer, unassigned) [Example 66, N-(3-(1H-pyrazol-4-yl)-1H-indol-7-yl)-3-(4-methylpiperazin-1-yl)-2-(pyridin-3-yl)propanamide]
20 nM | 46 nM | COc1ccc(C(CN)NC(=O)c2cccc3c(-c4cn[nH]c4)c[nH]c23)cc1 (single isomer, unassigned) [Example 145, N-(2-amino-1-(4-methoxyphenyl)ethyl)-3-(1H-pyrazol-4-yl)-1H-indole-7-carboxamide]
0.91 nM | 5.3 nM | COc1ccc(C(CN)C(=O)Nc2cccc3c(-c4cn[nH]c4)c[nH]c23)cc1 (racemic) [Example 90, 3-amino-2-(4-methoxyphenyl)-N-[3-(1H-pyrazol-4-yl)-1H-indol-7-yl]propanamide]
7.9 nM | 14 nM | NCc1cccc(C(CN)C(=O)Nc2cccc3c(-c4cn[nH]c4)c[nH]c23)c1 (racemic) [Example 76, 3-amino-2-[3-(aminomethyl)phenyl]-N-[3-(1H-pyrazol-4-yl)-1H-indol-7-yl]propanamide]
50 nM | 97 nM | NCC(C(=O)Nc1cccc2c(-c3cn[nH]c3)c[nH]c12)c1cccnc1 (single isomer, unassigned) [Example 33, N-(3-(1H-pyrazol-4-yl)-1H-indol-7-yl)-3-amino-2-(pyridin-3-yl)propanamide]
12 nM | 22 nM | N[C@@H](C(=O)Nc1cccc2c(-c3cn[nH]c3)c[nH]c12)c1cccnc1 (single isomer, unassigned) [Example 131, N-(3-(1H-pyrazol-4-yl)-1H-indol-7-yl)-2-amino-2-(pyridin-3-yl) acetamide]
3 nM | 6.5 nM | NCC(C(=O)Nc1cccc2c(-c3cn[nH]c3)c[nH]c12)C1CCOC1 (racemic) [Example 94, N-(3-(1H-pyrazol-4-yl)-1H-indol-7-yl)-3-amino-2-(tetrahydrofuran-3-yl)propanamide]
8.9 nM | 26 nM | NCC(C(=O)Nc1cccc2c(-c3cn[nH]c3)c[nH]c12)c1ccc(CO)nc1 (single isomer, unassigned) [Example 61, N-(3-(1H-pyrazol-4-yl)-1H-indol-7-yl)-3-amino-2-(6-(hydroxymethyl)pyridin-3-yl)propanamide]
0.52 nM | 0.81 nM | NCC(C(=O)Nc1cccc2c(-c3cn[nH]c3)c[nH]c12)c1ccc(F)cc1 (racemic) [Example 85, 3-amino-2-(4-fluorophenyl)-N-[3-(1H-pyrazol-4-yl)-1H-indol-7-yl]propanamide]
4.1 nM | 5.8 nM | NC[C@@H](Cc1ccccc1)C(=O)Nc1cccc2c(-c3cn[nH]c3)c[nH]c12 [Example 53, (2R)-3-amino-2-benzyl-N-[3-(1H-pyrazol-4-yl)-1H-indol-7-yl]propanamide]
0.88 nM | 2.6 nM | NCC(NC(=O)c1cccc2c(-c3cn[nH]c3)c[nH]c12)c1ccccc1 (racemic) [Example 134, N-(2-amino-1-phenylethyl)-3-(1H-pyrazol-4-yl)-1H-indole-7-carboxamide]
16 nM | 34 nM | CN(C)Cc1cccc(C(CN)C(=O)Nc2cccc3c(-c4cn[nH]c4)c[nH]c23)c1 (racemic) [Example 78, 3-amino-2-{3-[(dimethylamino)methyl]phenyl}-N-[3-(1H-pyrazol-4-yl)-1H-indol-7-yl]propanamide]
0.76 nM | 1.8 nM | COc1cccc(C(CN2CCN(C)CC2)C(=O)Nc2cccc3c(-c4cn[nH]c4)c[nH]c23)c1 (single isomer, unassigned) [Example 35, N-(3-(1H-pyrazol-4-yl)-1H-indol-7-yl)-2-(3-methoxyphenyl)-3-(4-methylpiperazin-1-yl)propanamide]
13 nM | 20 nM | Cc1cccc(C(CN)C(=O)Nc2cccc3c(-c4cn[nH]c4)c[nH]c23)n1 (racemic) [Example 93, 3-amino-2-(6-methylpyridin-2-yl)-N-[3-(1H-pyrazol-4-yl)-1H-indol-7-yl]propanamide]
4.3 nM | 9.2 nM | NCC(C(=O)Nc1cccc2c(-c3cn[nH]c3)c[nH]c12)c1ccccn1 (racemic) [Example 98, 3-amino-N-[3-(1H-pyrazol-4-yl)-1H-indol-7-yl]-2-(pyridin-2-yl)propanamide]
3.5 nM | 5.4 nM | COc1cccc([C@H](N)C(=O)Nc2cccc3c(-c4cn[nH]c4)c[nH]c23)c1 [Example 41, (2S)-2-amino-2-(3-methoxyphenyl)-N-[3-(1H-pyrazol-4-yl)-1H-indol-7-yl]acetamide]

Source: patent publication US20250346616A1 (DIZAL (JIANGSU) PHARMACEUTICAL CO., LTD., priority 2022, published 2025)
